In PubChem BioAssay AID248 (DTP/NCI, 2004):
Toxic doses and inconclusive results are not listed. No stated cut-off is given here; in the data, active means T/C of 150% or more; inactive means T/C below 125%.

System: L1210 leukemia ip in BDF1 mice, survival T/C
Assay: NCI In Vivo Anticancer Drug Screen. Data for tumor model L1210 Leukemia (intraperitoneal) in B6D2F1 (BDF1) mice
Details: endpoint: mean survival time, higher = longer survival
In short: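 Each compound was tested against a transplantable tumor grown in mice. The endpoint was survival, with treated animals benchmarked against vehicle controls as a simple ratio.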

[1] = dose: 100.0 mg/kg/injection, schedule: Q04DX003 (ip), vehicle: saline with Tween-80
[2] = dose: 25.0 mg/kg/injection, schedule: Q04DX003 (ip), vehicle: saline with Tween-80
[3] = dose: 50.0 mg/kg/injection, schedule: Q04DX003 (ip), vehicle: saline with Tween-80
[4] = dose: 25.0 mg/kg/injection, schedule: Q01DX009 (ip), vehicle: saline with Tween-80
[5] = dose: 100.0 mg/kg/injection, schedule: Q04DX002 (ip), vehicle: Klucel (hydroxypropylcellulose) (HPC)
[6] = dose: 200.0 mg/kg/injection, schedule: Q04DX002 (ip), vehicle: Klucel (hydroxypropylcellulose) (HPC)
[7] = dose: 400.0 mg/kg/injection, schedule: Q04DX002 (ip), vehicle: Klucel (hydroxypropylcellulose) (HPC)
[8] = dose: 100.0 mg/kg/injection, schedule: Q01DX009 (ip), vehicle: Klucel (hydroxypropylcellulose) (HPC)
[9] = dose: 100.0 mg/kg/injection, schedule: Q01DX001 (ip), vehicle: Klucel (hydroxypropylcellulose) (HPC)
[10] = dose: 100.0 mg/kg/injection, schedule: Q04DX003 (ip), vehicle: Klucel (hydroxypropylcellulose) (HPC)
[11] = dose: 200.0 mg/kg/injection, schedule: Q04DX003 (ip), vehicle: Klucel (hydroxypropylcellulose) (HPC)
[12] = dose: 400.0 mg/kg/injection, schedule: Q04DX003 (ip), vehicle: Klucel (hydroxypropylcellulose) (HPC)

Measured: T/C

O=NN(Cc1ccccc1)P(=O)(O)Oc1ccccc1
inactive: dose: 4.5 mg/kg/injection, schedule: Q01DX001 (ip), vehicle: saline 100 % of control | dose: 9.0 mg/kg/injection, schedule: Q01DX001 (ip), vehicle: saline 97 % of control | dose: 13.0 mg/kg/injection, schedule: Q01DX001 (ip), vehicle: saline 100 % of control | dose: 26.0 mg/kg/injection, schedule: Q01DX001 (ip), vehicle: saline 97 % of control | dose: 40.0 mg/kg/injection, schedule: Q01DX001 (ip), vehicle: saline 114 % of control | dose: 60.0 mg/kg/injection, schedule: Q01DX001 (ip), vehicle: saline 101 % of control | dose: 93.0 mg/kg/injection, schedule: Q01DX001 (ip), vehicle: saline 97 % of control | dose: 187.0 mg/kg/injection, schedule: Q01DX001 (ip), vehicle: saline 94 % of control | dose: 250.0 mg/kg/injection, schedule: Q01DX001 (ip), vehicle: saline 95 % of control | dose: 375.0 mg/kg/injection, schedule: Q01DX001 (ip), vehicle: saline 92 % of control | dose: 500.0 mg/kg/injection, schedule: Q01DX001 (ip), vehicle: saline 100 % of control | dose: 750.0 mg/kg/injection, schedule: Q01DX001 (ip), vehicle: saline 95 % of control

COC1OC(COC(c2ccccc2)(c2ccccc2)c2ccccc2)C(OC)C(OC)C1OC (stereo not given)
inactive: [1] 93 % of control | dose: 200.0 mg/kg/injection, schedule: Q04DX003 (ip), vehicle: saline with Tween-80 94 % of control | dose: 400.0 mg/kg/injection, schedule: Q04DX003 (ip), vehicle: saline with Tween-80 88 % of control

S=C(Nc1ccccc1)Sc1ccc(Cl)cc1
inactive: [2] 96 % of control | [3] 92 % of control | [1] 101 % of control

N#C/C(=C\c1ccc(-c2ccccc2)cc1)c1ccc([N+](=O)[O-])cc1
inactive: dose: 12.5 mg/kg/injection, schedule: Q01DX009 (ip), vehicle: saline with Tween-80 90 % of control | dose: 12.5 mg/kg/injection, schedule: Q04DX003 (ip), vehicle: saline with Tween-80 95 % of control | [4] 88 % of control | [2] 93 % of control | [3] 88 % of control

O=C1NC(=O)C2=C1SCCS2
inactive: dose: 100.0 mg/kg/injection, schedule: Q04DX002 (ip), vehicle: saline with Tween-80 91 % of control | dose: 200.0 mg/kg/injection, schedule: Q04DX002 (ip), vehicle: saline with Tween-80 109 % of control | dose: 400.0 mg/kg/injection, schedule: Q04DX002 (ip), vehicle: saline with Tween-80 109 % of control

Cc1cc(C)c(O)c(N=Nc2ccccc2)c1
inactive: dose: 100.0 mg/kg/injection, schedule: Q04DX003 (ip), vehicle: saline sonified 95 % of control | dose: 200.0 mg/kg/injection, schedule: Q04DX003 (ip), vehicle: saline sonified 93 % of control | dose: 400.0 mg/kg/injection, schedule: Q04DX003 (ip), vehicle: saline sonified 91 % of control

O=c1c2cnc3c4cccnc4ccc3c2[nH]n1-c1ccccc1
inactive: [5] 105 % of control | [6] 109 % of control | [7] 98 % of control

CCCCCCCCCC(=O)N/N=C/c1cccs1
inactive: [8] 101 % of control | dose: 200.0 mg/kg/injection, schedule: Q01DX009 (ip), vehicle: Klucel (hydroxypropylcellulose) (HPC) 101 % of control | dose: 400.0 mg/kg/injection, schedule: Q01DX009 (ip), vehicle: Klucel (hydroxypropylcellulose) (HPC) 89 % of control

NC(=O)C(NC(=O)c1ccc([N+](=O)[O-])cc1)Sc1ccccc1 (stereo not given)
inactive: [5] 109 % of control | [6] 106 % of control | [7] 101 % of control

CCCCC[C@H](O)/C=C/[C@@H]1[C@@H](C/C=C\CCCC(=O)O)[C@@H](O)C[C@H]1O
inactive: dose: 0.25 mg/kg/injection, schedule: Q#A X020 (ip), vehicle: saline 98 % of control | dose: 0.5 mg/kg/injection, schedule: Q#A X020 (ip), vehicle: saline 96 % of control | dose: 1.0 mg/kg/injection, schedule: Q#A X020 (ip), vehicle: saline 101 % of control | dose: 2.0 mg/kg/injection, schedule: Q#A X020 (ip), vehicle: saline 104 % of control | dose: 5.0 mg/kg/injection, schedule: Q04DX002 (ip), vehicle: saline 96 % of control | dose: 10.0 mg/kg/injection, schedule: Q04DX002 (ip), vehicle: saline 96 % of control | dose: 20.0 mg/kg/injection, schedule: Q04DX002 (ip), vehicle: saline 88 % of control

O=C1NCCN1c1cccc([N+](=O)[O-])c1
inactive: [4] 108 % of control | dose: 50.0 mg/kg/injection, schedule: Q01DX009 (ip), vehicle: saline with Tween-80 103 % of control | [9] 96 % of control | dose: 100.0 mg/kg/injection, schedule: Q01DX009 (ip), vehicle: saline with Tween-80 98 % of control

CC(C)C1=CC23CCC4C(C)(C(N)=O)CCCC4(C)C2CC1C1C(=O)NC(=O)C13 (stereo not given)
inactive: [10] 97 % of control | [11] 95 % of control | [12] 92 % of control

O=C1c2ccccc2-c2c(N=Cc3ccc([N+](=O)[O-])cc3)cccc21
inactive: [10] 102 % of control | [11] 89 % of control | [12] 96 % of control

CC12CCCCC1C1=C(CCCC1)CC2 (stereo not given)
inactive: dose: 50.0 mg/kg/injection, schedule: Q01DX001 (ip), vehicle: carboxymethylcellulose (CMC) 97 % of control | dose: 100.0 mg/kg/injection, schedule: Q01DX001 (ip), vehicle: carboxymethylcellulose (CMC) 92 % of control | dose: 200.0 mg/kg/injection, schedule: Q01DX001 (ip), vehicle: carboxymethylcellulose (CMC) 94 % of control | dose: 400.0 mg/kg/injection, schedule: Q01DX001 (ip), vehicle: carboxymethylcellulose (CMC) 97 % of control

Nc1ccc(Cl)cc1C(=O)O
inactive: [9] 90 % of control | dose: 200.0 mg/kg/injection, schedule: Q01DX001 (ip), vehicle: Klucel (hydroxypropylcellulose) (HPC) 101 % of control | dose: 400.0 mg/kg/injection, schedule: Q01DX001 (ip), vehicle: Klucel (hydroxypropylcellulose) (HPC) 90 % of control

CCC(=N\O)/C(C)=N/O
inactive: [10] 103 % of control | [11] 103 % of control | [12] 100 % of control

O=C(C[n+]1cc2ccccc2c2ccccc21)c1ccccc1
inactive: [8] 95 % of control

CC12CC=C3c4ccc(S)cc4CCC3C1CCC2=O (stereo not given)
inactive: dose: 100.0 mg/kg/injection, schedule: Q01DX001 (ip), vehicle: saline with Tween-80 96 % of control | dose: 200.0 mg/kg/injection, schedule: Q01DX001 (ip), vehicle: saline with Tween-80 89 % of control | dose: 400.0 mg/kg/injection, schedule: Q01DX001 (ip), vehicle: saline with Tween-80 89 % of control

COC(=O)C1(O)CC(=O)CCC1c1ccccc1 (stereo not given)
inactive: [10] 105 % of control | [11] 94 % of control | [12] 95 % of control

O=S(=O)(Cc1ccccc1)C(Cl)c1ccccc1 (stereo not given)
inactive: dose: 100.0 mg/kg/injection, schedule: Q01DX001 (ip), vehicle: saline 115 % of control | dose: 200.0 mg/kg/injection, schedule: Q01DX001 (ip), vehicle: saline 101 % of control | dose: 400.0 mg/kg/injection, schedule: Q01DX001 (ip), vehicle: saline 89 % of control

O=C(Nc1ccc(C(F)(F)F)c([N+](=O)[O-])c1)c1ccc(C(=O)Nc2ccc(C(F)(F)F)c([N+](=O)[O-])c2)cc1
inactive: dose: 100.0 mg/kg/injection, schedule: Q01DX001 (ip), vehicle: other 96 % of control | dose: 200.0 mg/kg/injection, schedule: Q01DX001 (ip), vehicle: other 93 % of control | dose: 400.0 mg/kg/injection, schedule: Q01DX001 (ip), vehicle: other 86 % of control

CC(CCOC(=O)c1ccccc1)=C(c1ccccc1)c1ccccc1
inactive: [5] 107 % of control | [6] 95 % of control | [7] 95 % of control

CCOc1c[n+](C)c(/C=C/c2ccccc2)s1
inactive: dose: 5.0 mg/kg/injection, schedule: Q01DX001 (ip), vehicle: carboxymethylcellulose (CMC) 108 % of control | dose: 10.0 mg/kg/injection, schedule: Q01DX001 (ip), vehicle: carboxymethylcellulose (CMC) 97 % of control | dose: 20.0 mg/kg/injection, schedule: Q01DX001 (ip), vehicle: carboxymethylcellulose (CMC) 94 % of control | dose: 40.0 mg/kg/injection, schedule: Q01DX001 (ip), vehicle: carboxymethylcellulose (CMC) 103 % of control
